3 compounds from PubChem BioAssay AID1259407 (Chemical Carcinogenesis Research Information System (CCRIS), 2018) can be followed below.

Active and inactive are the calls of the source. How the calls were made is not given here.

For the series, the system named is CCRIS mutagenicity, Ames/micronucleus/aberration tests. The series is described as follows: CCRIS mutagenicity studies.

In the case of `CCOP(=S)(OCC)Oc1cc(C)nc(C(C)C)n1`, the mutagenic call (Test System: AMES SALMONELLA TYPHIMURIUM, Strain/Indicator: TA97, Metabolic Activation: HAMSTER, LIVER, S-9, AROCLOR 1254 (10 OR 30%), Method: PREINCUBATION) was “inactive; negative”; the mutagenic call (Test System: AMES SALMONELLA TYPHIMURIUM, Strain/Indicator: TA97, Metabolic Activation: NONE, Method: PREINCUBATION) is “inactive; negative”; the mutagenic call (Test System: AMES SALMONELLA TYPHIMURIUM, Strain/Indicator: TA97, Metabolic Activation: RAT, LIVER, S-9, AROCLOR 1254 (10 OR 30%), Method: PREINCUBATION) is “inactive; negative”; the mutagenic call (Test System: AMES SALMONELLA TYPHIMURIUM, Strain/Indicator: TA98, Metabolic Activation: HAMSTER, LIVER, S-9, AROCLOR 1254 (10 OR 30%), Method: PREINCUBATION) is “inactive; negative”; the mutagenic call (Test System: AMES SALMONELLA TYPHIMURIUM, Strain/Indicator: TA98, Metabolic Activation: NONE, Method: PREINCUBATION) was “inactive; negative”; the mutagenic call (Test System: AMES SALMONELLA TYPHIMURIUM, Strain/Indicator: TA98, Metabolic Activation: NONE, Method: STANDARD PLATE) is “inactive; negative”. Also, the mutagenic call was “inactive; negative” (Test System: AMES SALMONELLA TYPHIMURIUM, Strain/Indicator: TA98, Metabolic Activation: RAT, LIVER, S-9, AROCLOR 1254 (10 OR 30%), Method: PREINCUBATION); “inactive; negative” (Test System: AMES SALMONELLA TYPHIMURIUM, Strain/Indicator: TA98, Metabolic Activation: S-9, NADPH GENERATING SYSTEM, Method: STANDARD PLATE); “inactive; negative” (Test System: AMES SALMONELLA TYPHIMURIUM, Strain/Indicator: TA100, Metabolic Activation: HAMSTER, LIVER, S-9, AROCLOR 1254 (10 OR 30%), Method: PREINCUBATION); “inactive; negative” (Test System: AMES SALMONELLA TYPHIMURIUM, Strain/Indicator: TA100, Metabolic Activation: NONE, Method: PREINCUBATION); “inactive; negative” (Test System: AMES SALMONELLA TYPHIMURIUM, Strain/Indicator: TA100, Metabolic Activation: RAT, LIVER, S-9, AROCLOR 1254 (10 OR 30%), Method: PREINCUBATION); “inactive; negative” (Test System: AMES SALMONELLA TYPHIMURIUM, Strain/Indicator: TA102, Metabolic Activation: NONE, Method: STANDARD PLATE). For the same compound, the mutagenic call runs as follows: (Test System: AMES SALMONELLA TYPHIMURIUM, Strain/Indicator: TA102, Metabolic Activation: S-9, NADPH GENERATING SYSTEM, Method: STANDARD PLATE) “inactive; negative”; (Test System: AMES SALMONELLA TYPHIMURIUM, Strain/Indicator: TA1535, Metabolic Activation: HAMSTER, LIVER, S-9, AROCLOR 1254 (10 OR 30%), Method: PREINCUBATION) “inactive; negative”; (Test System: AMES SALMONELLA TYPHIMURIUM, Strain/Indicator: TA1535, Metabolic Activation: NONE, Method: PREINCUBATION) “inactive; negative”; (Test System: AMES SALMONELLA TYPHIMURIUM, Strain/Indicator: TA1535, Metabolic Activation: NONE, Method: STANDARD PLATE) “inactive; negative”; (Test System: AMES SALMONELLA TYPHIMURIUM, Strain/Indicator: TA1535, Metabolic Activation: RAT, LIVER, S-9, AROCLOR 1254 (10 OR 30%), Method: PREINCUBATION) “inactive; negative”; (Test System: AMES SALMONELLA TYPHIMURIUM, Strain/Indicator: TA1535, Metabolic Activation: S-9, NADPH GENERATING SYSTEM, Method: STANDARD PLATE) “inactive; negative”. Further, the mutagenic call (Test System: AMES SALMONELLA TYPHIMURIUM, Strain/Indicator: TA1537, Metabolic Activation: NONE, Method: STANDARD PLATE) was “inactive; negative”; the mutagenic call (Test System: AMES SALMONELLA TYPHIMURIUM, Strain/Indicator: TA1537, Metabolic Activation: S-9, NADPH GENERATING SYSTEM, Method: STANDARD PLATE) is “inactive; negative”; the mutagenic call (Test System: E. COLI, Strain/Indicator: WP2 UVRA, Metabolic Activation: HAMSTER, LIVER, S-9, AROCLOR 1254, Method: STANDARD PLATE) was “inactive; negative”; the mutagenic call (Test System: E. COLI, Strain/Indicator: WP2 UVRA, Metabolic Activation: HAMSTER, LIVER, S-9, Method: STANDARD PLATE) is “inactive; negative”; the mutagenic call (Test System: E. COLI, Strain/Indicator: WP2 UVRA, Metabolic Activation: MOUSE, LIVER, S-9, AROCLOR 1254, Method: STANDARD PLATE) was “inactive; negative”; the mutagenic call (Test System: E. COLI, Strain/Indicator: WP2 UVRA, Metabolic Activation: MOUSE, LIVER, S-9, Method: STANDARD PLATE) was “inactive; negative”. Also, the mutagenic call (Test System: E. COLI, Strain/Indicator: WP2 UVRA, Metabolic Activation: NONE, Method: STANDARD PLATE) is “inactive; negative”; the mutagenic call (Test System: E. COLI, Strain/Indicator: WP2 UVRA, Metabolic Activation: RAT, LIVER, S-9, AROCLOR 1254, Method: STANDARD PLATE) is “inactive; negative”; the mutagenic call (Test System: E. COLI, Strain/Indicator: WP2 UVRA, Metabolic Activation: RAT, LIVER, S-9, Method: STANDARD PLATE) was “inactive; negative”.

`C=C(C)C1CC=C(CO)CC1` (stereo not given): the mutagenic call runs as follows: (Test System: Mouse lymphoma, Strain/Indicator: L5178Y (tk+/tk-), Metabolic Activation: None, Method: Suspension/plate) “inactive; negative”; (Test System: Mouse lymphoma, Strain/Indicator: L5178Y (tk+/tk-), Metabolic Activation: Rat, Liver, S-9, Aroclor 1254, Method: Suspension/plate) “inactive; positive. retest at same dose: negative”.

With `CNC(=O)CNC(=O)C=[N+]=[N-]`, under “Test System: UDS RODENT CELLS, Strain/Indicator: THY INCORP (NON-S-PHASE), Metabolic Activation: NONE, Method: AUTORADIOGRAPHY”, the mutagenic call is “active; positive”.
